In the supplement of paper PMC10307832:

Experiments:
Experiment in all cases: relative viability (nuclei count vs DMSO), 5 days (fraction); higher = more cells survive
[1] = compound: CN1CCN(CC1)C2=CC(=C(C=C2)NC3=NC(=C(S3)C(=O)C4=C(C=CC=C4Cl)Cl)N)OC [XMD14-99] + C[C@@H](Oc1cc(-c2cnn(C3CCNCC3)c2)cnc1N)c1c(Cl)ccc(F)c1Cl [Crizotinib] (partner 1 µM)
Outline: (§1)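 Lung cancer cell lines, seeded in 1536-well plates, were treated the following day by pin tool with a single drug or with five library-drug doses (not always all listed) in √10 steps on top of a fixed anchor-drug dose. Cells were fixed and nuclei stained in one step after 5 days, and nuclei were counted. Relative viability is the nuclei count for treated wells divided by that for vehicle wells, reported as medians of duplicate plates.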

[2] = compound: N[C@@H]1CCCN(c2c(/C=C3\SC(=O)NC3=O)cccc2-c2ccccc2)C1 [AZD1208] + COc1cccc2cc(-c3nc([C@H]4CC[C@H](C(=O)O)CC4)n4ncnc(N)c34)[nH]c12 [OSI-027] (partner 0.5 µM)
Outline: as §1

[3] = compound: CN1CCN(CC1)C2=CC(=C(C=C2)NC3=NC(=C(S3)C(=O)C4=C(C=CC=C4Cl)Cl)N)OC [XMD14-99] + Nc1ncn([C@H]2C[C@H](O)[C@@H](CO)O2)c(=O)n1 [Decitabine] (partner 2 µM)
Outline: as §1

[4] = compound: CN1CCN(CC1)C2=CC(=C(C=C2)NC3=NC(=C(S3)C(=O)C4=C(C=CC=C4Cl)Cl)N)OC [XMD14-99] + COc1cccc2cc(-c3nc([C@H]4CC[C@H](C(=O)O)CC4)n4ncnc(N)c34)[nH]c12 [OSI-027] (partner 0.5 µM)
Outline: as §1

Cell Line	relative viability ([1]; first compound 0.08 µM)	relative viability ([1]; first compound 0.8 µM)	relative viability ([1]; first compound 2.53 µM)	relative viability ([1]; first compound 8 µM)	relative viability ([2]; first compound 0.08 µM)	relative viability ([2]; first compound 0.253 µM)	relative viability ([2]; first compound 0.8 µM)	relative viability ([2]; first compound 2.53 µM)	relative viability ([2]; first compound 8 µM)	relative viability ([3]; first compound 0.08 µM)	relative viability ([3]; first compound 0.8 µM)	relative viability ([3]; first compound 2.53 µM)	relative viability ([3]; first compound 8 µM)	relative viability ([4]; first compound 0.08 µM)	relative viability ([4]; first compound 0.8 µM)	relative viability ([4]; first compound 2.53 µM)	relative viability ([4]; first compound 8 µM)
NCI-H1975	0.934	0.984	0.902	0.74	0.682	0.688	0.68	0.758	0.594	0.495	0.412	0.449	0.317	0.825	0.822	0.653	0.535
CAL-12T	0.926	0.609	0.724	0.466	0.61	0.668	0.583	0.506	0.436					0.492	0.68	0.747	0.377
NCI-H1623					0.445	0.38	0.406	0.366	0.431					0.434	0.43	0.392	0.396
HCC-44	0.828	0.762	0.855	0.765	0.504	0.496	0.512	0.331	0.485	1.01	0.902	0.898	0.911	0.46	0.493	0.421	0.469
EKVX	0.976	0.808	0.898	0.741	0.674	0.651	0.634	0.673	0.648	0.274	0.322	0.316	0.239	0.653	0.72	0.655	0.586
NCI-H1651	0.869	0.799	0.934	0.825	0.679	0.878	0.534	0.595	0.503	0.683	0.546	0.601	0.509	0.815	0.691	0.622	0.531
NCI-H1944	1.25	1.13	0.992	0.857	0.407	0.341	0.305	0.282	0.249	0.48	0.458	0.414	0.372	0.382	0.44	0.358	0.278
NCI-H1703	0.611	0.52	0.58	0.587													
Calu-6	0.807	0.756	0.747	0.513													
EBC-1	0.232	0.19	0.188	0.156													
A-427	0.83	0.746	0.614	0.658	0.453	0.543	0.469	0.41	0.378	0.537	0.545	0.541	0.521	0.457	0.421	0.401	0.311
NCI-H2405	0.84	0.858	0.863	0.674	0.52	0.575	0.56	0.607	0.532	0.704	0.749	0.628	0.648	0.593	0.606	0.607	0.5
NCI-H1355	1.15	1.11	0.949	0.879	0.389	0.31	0.315	0.285	0.273	0.381	0.339	0.343	0.346	0.395	0.367	0.337	0.292
NCI-H358	0.661	0.733	0.576	0.302	0.649	0.738	0.626	0.695	0.472	0.231	0.187	0.203	0.174	0.702	0.813	0.707	0.404
RERF-LC-KJ	0.891	0.836	0.845	0.699	0.511	0.558	0.512	0.518	0.41	0.737	0.674	0.665	0.506	0.572	0.556	0.527	0.366
NCI-H23	0.45	0.447	0.461	0.351	0.576	0.705	0.523	0.37	0.382	0.288	0.262	0.338	0.309	0.699	0.616	0.615	0.496
HOP-62	1.06	0.942	0.883	0.663	0.863	0.965	0.726	0.642	0.632	0.23	0.226	0.237	0.273	0.873	0.877	0.772	0.662
HARA	0.994	0.938	0.864	0.646	0.467	0.497	0.468	0.433	0.277	0.565	0.505	0.537	0.403	0.46	0.426	0.321	0.182
PC-14	0.824	0.796	0.866	0.714	0.838	0.881	0.722	0.586	0.621	0.26	0.238	0.201	0.142	0.809	0.806	0.644	0.29
